# Laboratory results taken from ChEMBL document CHEMBL6074712, “Optimization of Potent and Selective Cyclohexyl Acid ERAP1 Inhibitors Using Structure- and Property-Based Drug Design” (ACS Med Chem Lett, 2024).
# Assay: physchem
# Conditions: buffer
# Description: Aqueous solubility of compound
row,solubility kinetic,SMILES
1,≥ 112 µg/mL,O=C(CN1C(=O)COc2ccc(Cl)cc21)NC1(C(=O)O)CCCCC1
2,≥ 157 µg/mL,O=C(Cn1c(=O)oc2ccc(-c3ccccc3)cc21)NC1(C(=O)O)CCCCC1
3,≥ 172 µg/mL,O=C(CN1C(=O)COc2ccc(C(F)(F)F)cc21)NC1(C(=O)O)CCCCC1
